For orientation: EC50 means the concentration that produces a half-maximal response.

Molecules are shown by their SMILES.

In this test the test system is SARS-CoV-2 RG-2675 (South Africa). Put plainly: Cytopathic effect reduction, SARS-CoV-2 RG-2675 (South Africa) in Vero cells. The format is cell-based. The note with it: Severe acute respiratory syndrome coronavirus 2, Vero, read-out: Antiviral Activity (EC50) RG-2675 (South Africa). Background: Cytopathic effects are the visible damage that an infection or toxin causes in cultured cells.
On to `COc1ccc(C(OC[C@H]2O[C@@H](n3ccc4nc5cc(O)ccc5n4c3=O)C[C@@H]2O)(c2ccccc2)c2ccc(OC)cc2)cc1` [Compound 3a, 2-((2R,4S,5R)-5-((bis(4-methoxyphenyl)(phenyl)methoxy)methyl)-4-hydroxytetrahydrofuran-2-yl)-7-hydroxybenzo[4,5]imidazo[1,2-c]pyrimidin-1(2H)-one], for which the EC50 was found to be 9.1 ± 0.62 µM.
As for `CC(C)C(=O)OC[C@H]1O[C@@H](n2ccc(NO)nc2=O)[C@H](O)[C@@H]1O` [Molnupiravir], the EC50 came to 5.18 ± 0.26 µM.
`CCC(CC)COC(=O)[C@H](C)N[P@](=O)(OC[C@H]1O[C@@](C#N)(c2ccc3c(N)ncnn23)[C@H](O)[C@@H]1O)Oc1ccccc1` [Remdesivir, reference compound]: the EC50 amounted to 1.31 ± 0.68 µM.

For the origin of these results see paper PMC10572855, “Phenotypic Test of Benzo[4,5]imidazo[1,2-c]pyrimidinone-Based Nucleoside and Non-Nucleoside Derivatives against DNA and RNA Viruses, Including Coronaviruses” (International Journal of Molecular Sciences, 2023).
